Like-named read-outs stand apart in the source and are kept apart here.
Experiments:
[1] = test system: HUVEC (human umbilical vein endothelial cell line); assay: Proliferation of HUVEC; assay type: cell-based
[2] = test system: AML cell lines expressing functional p53 (MV4-11, OCI-AML2, OCI-AML3 and MOLM-13); assay: Growth inhibition assay of AML cell lines expressing functional p53; assay type: cell-based, human; conditions: 48 hours; at between nanomolar to low micromolar levels
Method: Growth inhibition of some AML cell lines expressing functional p53 (MV4-11, OCI-AML2, OCI-AML3 and MOLM-13) by PI polyamide conjugates at different concentrations was tested. Briefly, the cells were placed at a density of 1×10^5 cells/mL. Different concentrations of a PI polyamide conjugate (Chb-M′ or Chb-50) were added to media, and the cells were incubated for 48 hours (n=3). The number of viable cells when the PI polyamide conjugate was not added was used as a control (DMSO control). Cell viability was assessed by counting the viable cells with Cell Count Reagent SF (Nacalai tesque, Inc.) and Infinite (registered trademark) 200 PRO multimode reader (TECAN) according to the manufacturer's instructions.

[3] = test system: BCL11A, TRIM24, p21, BAX, PUMA, MDM2, PARP, cleaved caspase-3; assay: Immunoblotting of p53 pathway and apoptosis proteins in MV4-11 cells; assay type: cell-based, human; conditions: 1 μM, 24 hours
Method: Cells were washed twice with ice cold phosphate-buffered saline (PBS) and harvested in protein lysis buffer [50 mM Tris (pH 7.4), 100 mM NaCl, 0.1 mM EDTA, 1 mM phenylmethylsulfonyl fluoride, 1 mM β-glycerophosphate, 2.5 mM sodium pyrophosphate, 1 mM Na3VO4, lx protease inhibitor (Roche) and PhosSTOP (Roche)]. Whole cell extracts were separated by SDS-polyacrylamide gel electrophoresis (SDS-PAGE) and electrotransferred onto polyvinylidene difluoride membranes. Membranes were probed with the following antibodies: anti-Ctip1 antibody (Abcam, ab19487), anti-TRIM24 antibody (Bethyl Laboratories, Inc), anti-RUNX1 antibody (A-2), anti-GAPDH (FL-335), anti-p21 (C-19), anti-Bax (N-20) antibodies (Santa Cruz Biotechnology, Inc.), anti-RUNX2, anti-RUNX3, anti-p53 antibodies (Cell Signaling Technology), anti-CBFβ antibody (FL-182, Santa Cruz Biotechnology, Inc.), anti-cleaved caspase-3 antibody (5A1E, Cell Signaling Technology), anti-PARP antibody (46D11, Cell Signaling Technology). For secondary antibodies, anti-rabbit IgG, or anti-mosue IgG HRP-linked antibodies (Cell Signaling Technology) were used. Blots were detected using Chemi-Lumi One Super (nacalai tesque, Inc.) and ChemiDoc™ XRS+ Imager (Bio-Rad Laboratories, Inc.), as recommended by the manufacturers. Protein levels were quantified with Image Lab Software (Bio-Rad Laboratories, Inc.).
Briefly, MV4-11 cells were treated with 1 μM Chb-M′ or Chb-50 for 24 hours. The treated cells were dissolved in the protein lysis buffer. Whole cell extracts were resolved by SDS-polyacrylamide gel electrophoresis (SDS-PAGE) and transferred onto polyvinylidene difluoride membranes. The membranes were probed with each antibody. Blots were detected and quantified. As a control, the cells treated with DMSO were used.

SU/SR cells = assay: Xenograft ALL mouse model (SU/SR); assay type: in vivo
BCR-ABL gene = assay: qRT-PCR of BCR-ABL gene in CML and PhALL cells; assay type: cell-based, human; conditions: 3 μM or 1 μM, 6 hours
Method: (§1) A total RNA was isolated with RNeasy mini kit (Qiagen) and reverse transcribed with Reverse script kit (TOYOBO) to generate cDNA. Real-time quantitative polymerase chain reaction (PCR) was carried out with 7500 Real-Time PCR System (Applied Biosystems) according to the manufacturer's instructions. Results were normalized to GAPDH levels. Relative expression levels were calculated using the 2-ΔΔCt method.
To BV173 cells, MYL cells, SU-Ph2 cells, and SU/SR cells, 3 μM or 1 μM of Chb-M′ was administered. After 6 hours, a total RNA was extracted from the cells, and then subjected to qRT-PCR (see the above-described “Real-time quantitative PCR (qRT-PCR)”) to quantify the expression levels of BCR-ABL gene. As a control, DMSO was administered. In the figures, the expression levels are shown as values relative to the mRNA level of p210BCR-ABL or the mRNA level of p190BCR-ABL in the DMSO (control)-administered group.

MLL-ENL leukemia cells = assay: Homing assay of MLL-ENL leukemia cells; assay type: in vivo, mouse; conditions: B6 mice, 320 μg/kg, 6 times over 2 weeks; 24 hours after cell injection
LU99A = assay: Cell viability, lung adenocarcinoma LU99A; assay type: cell-based, human; conditions: LU99A (EGFR wild-type p53 wild-type), 48 hours
Mig6 = assay: Western blotting of Mig6 in lung adenocarcinoma cells; assay type: cell-based, human; conditions: 1 μM, 24 hours
Method: (§2) Cells were washed twice with ice cold phosphate-buffered saline (PBS) and harvested in protein lysis buffer [50 mM Tris (pH 7.4), 100 mM NaCl, 0.1 mM EDTA, 1 mM phenylmethylsulfonyl fluoride, 1 mM β-glycerophosphate, 2.5 mM sodium pyrophosphate, 1 mM Na3VO4, lx protease inhibitor (Roche) and PhosSTOP (Roche)]. Whole cell extracts were separated by SDS-polyacrylamide gel electrophoresis (SDS-PAGE) and electrotransferred onto polyvinylidene difluoride membranes. […] Blots were detected using Chemi-Lumi One Super (nacalai tesque, Inc.) and ChemiDoc™ XRS+ Imager (Bio-Rad Laboratories, Inc.), as recommended by the manufacturers. Protein levels were quantified with Image Lab Software (Bio-Rad Laboratories, Inc.).
To LU99A cells and A549 cells, 1 μM Chb-M′ was administered. After 24 hours, the expression of Mig6 protein was evaluated by the Western blotting method (see the above-described “Immunoblotting”). […]

p53, p21, PUMA, and BAX = assay: Western blotting of apoptosis-related factors in lung adenocarcinoma cells; assay type: cell-based, human; conditions: A549 cells and LU99A cells, 1 μM, 24 hours
Method: as §2
To A549 cells and LU99A cells, 1 μM Chb-M′ was administered. After 24 hours, the expression levels of apoptosis-related factors (p53, p21, PUMA, and BAX) were evaluated by the Western blotting method (see the above-described “Immunoblotting”). […]

GATA2, E2F5, and AR = assay: qRT-PCR of prostatic adenocarcinoma-related factors in PC-3; assay type: cell-based, human; conditions: PC-3, 5 μM, 6 hours
Method: as §1
To prostatic adenocarcinoma cell line PC-3, 5 μM Chb-M′ was administered. After 6 hours, the mRNA levels of GATA2, E2F5, and AR (androgen receptors), which are important genes for proliferation of prostate cancer cells, were evaluated by qRT-PCR (see the above-described “Real-time quantitative PCR (qRT-PCR)”). As a control, DMSO was administered. In the figure, the mRNA expression levels of GATA2, E2F5, and AR are shown as values relative to those in the DMSO-treated group. As evident from FIG. 45, the expressions of GATA2, E2F5, and AR were suppressed by Chb-M′ at transcriptional levels.

In the case of `CN(C)CCCNC(=O)c1cc(NC(=O)c2cc(NC(=O)c3cc(NC(=O)c4cc(NC(=O)CCCNC(=O)c5nc(NC(=O)c6nc(NC(=O)c7cc(NC(=O)c8nc(NC(=O)CCNC(=O)CCCc9ccc(N(CCCl)CCCl)cc9)cn8C)cn7C)cn6C)cn5C)cn4C)cn3C)cn2C)cn1C` [Chb-M′], the IC50 [1] is reported as ≥ 50000 nM, the “Growth inhibition of AML cells” value [2] is reported as “highly effective” and the “Cleaved form of PARP and cleaved caspase-3 (apoptosis)” value [3] is reported as “emergence”. For the same compound, the “Protein expression levels of p53 and downstream proteins (p21, BAX)” value [3] was “increased”, the “Protein expression levels of suppressors of p53 (BCL11A and TRIM24)” value [3] was “reduced” and the “H&E staining of bone marrow” value (SU/SR cells; NOG mice with SU/SR) was “homogeneity was lost”. The “Invasion of liver by transplanted PhALL cells (hCD45 staining)” value (SU/SR cells; NOG mice with SU/SR) was “reduced”, the “Invasion of spleen by transplanted PhALL cells (hCD45 staining), compared with liver” value (SU/SR cells; NOG mice with SU/SR) was “same results” and the “hCD45 staining of bone marrow (human leukemia cells)” value (SU/SR cells; NOG mice with SU/SR) was “most of the brown parts lost”. For the same compound, the “Lengthening of overall survival periods” value (SU/SR cells; NOG mice with SU/SR (Ph+), 320 μg/kg IV twice a week) was “about 1.8 times”, the “mRNA level of p210BCR-ABL” value (BCR-ABL gene; BV173 cells) was “decreased” and the “mRNA level of p210BCR-ABL” value (BCR-ABL gene; MYL cells) was “decreased”. The “mRNA level of p190BCR-ABL” value (BCR-ABL gene; SU-Ph2 cells) was “decreased”, the “mRNA level of p190BCR-ABL” value (BCR-ABL gene; SU/SR cells) was “decreased” and the “Number of MLL-ENL cells in bone marrow vs control group” value (MLL-ENL leukemia cells) was “smaller”. The “Number of leukemia cells in spleen” value (MLL-ENL leukemia cells) was “increased”, the “IC50 compared with the EGFR inhibitor (gefitinib)” value (LU99A) was “lower IC50 values” and the “Expression level of Mig6 protein” value (Mig6; A549 cells) was “enhanced”. The “Expression level of Mig6 protein” value (Mig6; LU99A cells) was “enhanced”, the “p53 and p21 and apoptotic factors PUMA and BAX (protein)” value (p53, p21, PUMA, and BAX) was “enhanced” and the “Expressions of GATA2, E2F5, and AR (mRNA)” value (GATA2, E2F5, and AR) was “suppressed”. The IC50 (UF1 (p53Null); culture time 48 hours) was 1750 nM and the IC50 (UF1 (p53Null); culture time 72 hours) was 674 nM.
